Results taken from PubChem BioAssay (NCI).
“And” between values parts separate entries of the source, which are not always exact repeats. Equal entries are not always repeated.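 Method: 48-hour compound exposure of cells in 96-well plates, five concentrations, linear interpolation of endpoints. GI50 marks 50% less growth. TGI: concentration producing complete growth inhibition.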

Key:
Experiment in all cases: NCI-60 cell line screen, 48 h
HOP-62 NSCLC = test system: HOP-62 NSCLC
SK-MEL-5 melanoma = test system: SK-MEL-5 melanoma
OVCAR-4 ovarian = test system: OVCAR-4 ovarian
MOLT-4 leukemia = test system: MOLT-4 leukemia
COLO 205 colon = test system: COLO 205 colon
NCI-H23 lung = test system: NCI-H23 lung
TK-10 renal = test system: TK-10 renal
SF-539 CNS = test system: SF-539 CNS
SK-OV-3 ovarian = test system: SK-OV-3 ovarian
KM12 colon = test system: KM12 colon

Structure (SMILES)	GI50 (HOP-62 NSCLC)	GI50 (SK-MEL-5 melanoma)	TGI (SK-MEL-5 melanoma)	GI50 (OVCAR-4 ovarian)	GI50 (MOLT-4 leukemia)	TGI (MOLT-4 leukemia)	GI50 (COLO 205 colon)	TGI (COLO 205 colon)	GI50 (NCI-H23 lung)	TGI (NCI-H23 lung)	GI50 (TK-10 renal)	TGI (TK-10 renal)	GI50 (SF-539 CNS)	TGI (SF-539 CNS)	GI50 (SK-OV-3 ovarian)	TGI (SK-OV-3 ovarian)	GI50 (KM12 colon)	TGI (HOP-62 NSCLC)	TGI (OVCAR-4 ovarian)	TGI (KM12 colon)
O=C1/C=C/[C@@H](O)[C@@H]2C[C@@H](O)C[C@H]2/C=C/CCC[C@H](CCc2ccc3ncccc3c2)O1	0.317 µM	0.0567 µM	0.162 µM	0.253 µM	0.289 µM	1.54 µM	0.19 µM	0.343 µM	0.219 µM	1.18 µM	0.265 µM	0.821 µM	0.495 µM	> 100 µM	0.336 µM	> 32.1 µM	0.175 µM	–	–	–
O=c1c2cc(Br)cc(Br)c2nc(CCCl)n1-c1ccc(O)c([N+](=O)[O-])c1	–	–	35.6 µM	–	–	50.5 µM	–	36.3 µM	–	46.5 µM	–	32.7 µM	–	37.1 µM	–	29.5 µM	–	33 µM	29 µM	33.7 µM
NCCCOc1cc2ccccc2cc1C(=O)Nc1ccc(Cl)cc1OC(=O)c1cc2ccccc2cc1OCCCN	0.208 µM	1.23 µM	2.49 µM	0.146 µM	0.468 µM	3.66 µM	1.27 µM	2.63 µM	0.387 µM	1.2 µM	0.545 µM	1.07 µM	0.345 µM	0.9 µM	1.57 µM	3.19 µM	0.19 µM	0.515 µM	0.306 µM	0.394 µM
N#Cc1c(-c2ccccc2)cc(-c2ccc(N)cc2)[nH]c1=O	–	–	> 100 µM	–	–	> 100 µM	–	> 100 µM	–	> 100 µM	–	> 100 µM	–	> 100 µM	–	> 100 µM	–	> 100 µM	> 100 µM	> 100 µM
C=C1c2ccccc2C(=O)c2c1c1c(C(=O)OC)c(OC(=O)OCc3ccc([N+](=O)[O-])cc3)ccc1n2Cc1ccccc1	13.3 µM	29.1 µM	64.3 µM	23.2 µM	2.6 µM	11.6 µM	32.4 µM	> 100 µM	4.22 µM	17.9 µM	21.1 µM	> 100 µM	6.47 µM	32.3 µM	23.8 µM	57.6 µM	12.7 µM	29.3 µM	> 100 µM	61.4 µM
COCCOCCOCc1n(Cc2ccc3ccccc3c2)c2ccccc2[n+]1Cc1ccc2ccccc2c1	1.17 µM	0.216 µM	0.544 µM	0.231 µM	0.693 µM	2.43 µM	0.27 µM	1.15 µM	0.392 µM	1.73 µM	0.772 µM	2.15 µM	0.587 µM	2.01 µM	1.14 µM	2.49 µM	0.352 µM	2.59 µM	1.19 µM	1.29 µM
C/C=C/C/C=C/[C@H](C)C[C@H](O)[C@@H]1C[C@@H]2O[C@H]2/C=C/[C@@H]2OC(C)(C)O[C@H]2/C=C/C[C@H](C)CC(=O)O1	15.1 µM	4.39 µM	44 µM	9.9 µM	3.94 µM	37.4 µM	8.02 µM	> 100 µM	6.08 µM	> 100 µM	51.8 µM	> 100 µM	26.3 µM	> 100 µM	24.5 µM	> 100 µM	7.85 µM	90.2 µM	> 100 µM	> 100 µM
CO[C@@H]1CCN(c2nccc(Nc3cc4c(C(C)C)ccc(N5CC(CS(C)(=O)=O)[C@H]5C)c4cn3)n2)C[C@@H]1F (some centres not stated)	4.46 µM	2.22 µM	5.42 µM	2.92 µM	2.98 µM	> 100 µM	4.71 µM	> 100 µM	3.7 µM	20.4 µM	0.843 µM	19.9 µM	5.05 µM	24.3 µM	7.42 µM	> 100 µM	3.14 µM	> 100 µM	53.1 µM	> 100 µM
CCOC(=O)Nc1nc2ccccc2[nH]1	6.08 µM and > 22.9 µM	3.5 µM and 2.55 µM	> 100 µM	28.8 µM and 60.6 µM	4.57 µM and 5 µM	> 100 µM	3.62 µM and 3.27 µM	15.2 µM and > 32.6 µM	8.17 µM and > 21.9 µM	> 100 µM	11.3 µM and > 27 µM	> 100 µM	2.63 µM and 2.92 µM	9.69 µM and > 32.1 µM	4.69 µM and 4.19 µM	> 100 µM	5.16 µM and 2.96 µM	> 100 µM	> 100 µM	> 100 µM
COc1cccc(-c2nn(-c3ccccc3)cc2-c2ccnc(NCCCNC(=O)c3cccc(C(F)(F)F)c3)c2)c1	10.3 µM	1.54 µM	3.34 µM	4.22 µM	2.63 µM	9.35 µM	3.33 µM	12.4 µM	4.49 µM	24.2 µM	7.33 µM	31.2 µM	2.92 µM	8.29 µM	7.04 µM	29.2 µM	3.64 µM	30.6 µM	32.2 µM	19.8 µM
CCOC(=O)C(=O)Nc1cc(Cl)c(Cl)cc1Cl	–	–	> 100 µM	–	–	> 100 µM	–	> 100 µM	–	> 100 µM	–	> 100 µM	–	> 100 µM	–	> 100 µM	–	> 100 µM	> 100 µM	> 100 µM
COc1cccc(/C=C/c2nc3c(cnn3-c3ccccc3)c(=O)[nH]2)c1	7.19 µM	> 96.6 µM	> 100 µM	> 34.9 µM	> 100 µM	> 100 µM	> 100 µM	> 100 µM	> 100 µM	> 100 µM	> 28.2 µM	> 100 µM	> 70 µM	> 100 µM	> 100 µM	> 100 µM	25.5 µM	> 100 µM	> 100 µM	> 100 µM
c1ccc(CN2CCc3[nH]c4ccccc4c3C2)cc1	–	–	31.3 µM	–	–	66.1 µM	–	31.9 µM	–	> 92.6 µM	–	> 71 µM	–	56.2 µM	–	98.4 µM	–	> 73.5 µM	84.4 µM	45.9 µM
COC(=O)CCC(=O)N1C/C(=C\c2ccccc2)C(=O)/C(=C/c2ccccc2)C1	–	–	5.44 µM	–	–	7.77 µM	–	3.67 µM	–	4.35 µM	–	13.2 µM	–	7.53 µM	–	13.9 µM	–	28.7 µM	4.92 µM	2.84 µM
Cc1cccc(C)c1NC(=O)CCc1nnc2s/c(=C\c3ccc(N(C)C)cc3)c(=O)n12	–	–	> 100 µM	–	–	> 100 µM	–	> 100 µM	–	> 100 µM	–	> 100 µM	–	> 100 µM	–	> 100 µM	–	> 100 µM	> 100 µM	> 100 µM
